Test [1] concerns K562. As to the kind of experiment: Antiproliferative activity against human K562 cells measured after 3 days by MTS assay. It counts as functional, cell-based. Particulars: K562, 72 h. In general terms: Tetrazolium dyes change colour on reduction, which living cells bring about.
The nature of test [2]: Antiproliferative activity against human U937 cells measured after 3 days by MTS assay. It counts as functional, cell-based. Particulars: U-937, 72 h.
The nature of test [3]: Antiproliferative activity against human HL60 cells measured after 3 days by MTS assay. As to conditions: HL-60, 72 h. It counts as functional, cell-based.
In test [4] the test system is Jurkat. As to the kind of experiment: Antiproliferative activity against human Jurkat cells measured after 3 days by MTS assay. It counts as functional, cell-based. Particulars: 72 h.
Test [5] can be described thus: Antiproliferative activity against human U266 cells measured after 3 days by MTS assay. It counts as functional, cell-based. Particulars: U-266, 72 h.
For test [6], the system named is PBMC. As to the kind of experiment: Cytotoxicity against PHA induced human PBMC after 3 days by MTS assay. It counts as cell-based. As to conditions: 72 h.
Test [7] can be described thus: Selectivity index, ratio of IC50 for human PBMC to IC50 for human Jurkat cells.
A short description of test [8]: Selectivity index, ratio of IC50 for human PBMC to IC50 for human K562 cells.
Test [9] can be described thus: Selectivity index, ratio of IC50 for human PBMC to IC50 for human U937 cells. Details: species or system U-937.
Test [10] in a line: Selectivity index, ratio of IC50 for human PBMC to IC50 for human U266 cells. Details: species or system U-266.
In test [11] the test system is K562. As to the kind of experiment: Induction of apoptosis in human K562 cells at 10 uM measured on day 3 by APC-Annexin-V staining based flow cytometry. It counts as functional. For orientation: Flow cytometry measures light scatter and fluorescence of single cells or particles in a stream.

In general, IC50 refers to the midpoint of a concentration-inhibition curve. Read a high IC50 as a need for much substance. `CCOC(=O)c1cc2c(-c3ccc(CN4CCC(c5nnc(-c6ccccn6)[nH]5)CC4)cc3)nc3ccccc3n2c1-c1ccccc1`: the IC50 in [1] amounted to 3.5 µM; in test [2], 8 µM; in [3] it was 7 µM; in [4], 3 µM; in test [5] it was 3 µM; in test [6] it was 12 µM.
Consider `CCOC(=O)c1c(-c2ccccc2)cn2c1c(-c1ccc(CN3CCC(c4nc5ccc(F)cc5[nH]4)CC3)cc1)nc1ccccc12`, for which the IC50 amounted to 3 µM in test [1]; 21 µM in test [2]; 19 µM in test [3]; 5 µM in test [4]; 3.5 µM in test [5]; 14 µM in test [6].
Turning to `O=c1[nH]c2ccccc2n1C1CCN(Cc2ccc(-c3nc4cc5[nH]cnc5cc4nc3-c3ccccc3)cc2)CC1`, the IC50 in test [1] is 17 µM; in test [2], 8 µM; in test [3] it was 5.5 µM; in test [4], 3.5 µM; in [6] it was > 50 µM.
Consider `CCOC(=O)c1cn2c(c(-c3ccc(CN4CCC(n5c(=O)[nH]c6ccccc65)CC4)cc3)nc3ccccc32)c1-c1ccccc1`, for which the concentration for half-maximal inhibition (IC50) in test [1] was 9 µM; in [2] it was > 50 µM; in [3] it was 3.5 µM; in test [4], 4 µM; in test [5] it was 10 µM; in test [6] it was 41.3 µM.
For the compound `CCOC(=O)c1cc2c(-c3ccc(CN4CCC(n5c(=O)[nH]c6ccccc65)CC4)cc3)nc3ccccc3n2c1-c1ccccc1`, the half-maximal inhibitory concentration (IC50) was 8.5 µM in test [1]; > 50 µM in test [2]; > 50 µM in [3]; 6.5 µM in [4]; > 50 µM in test [5]; > 50 µM in test [6].
As for `CCOC(=O)c1cc(-c2ccccc2)n2c1c(-c1ccc(CN3CCC(n4c(=O)[nH]c5ccccc54)CC3)cc1)nc1ccccc12`, the IC50 is 8 µM in test [1]; 9 µM in [2]; 6 µM in [3]; 4 µM in test [4]; 9 µM in test [5]; > 50 µM in test [6]. In [7], the “Ratio IC50” value is >12.5.
For the compound `CCOC(=O)c1c(-c2ccccc2)cn2c1c(-c1ccc(CN3CCC(n4c(=O)[nH]c5ccccc54)CC3)cc1)nc1ccccc12`, the IC50 in test [1] is 4 µM; in test [2], > 50 µM; in test [3] it was > 50 µM; in test [4], 41 µM; in test [5], > 50 µM; in [6], > 50 µM. Further, in test [8], the “Ratio IC50” value is on record as >12.5.
With `CCOC(=O)c1c(-c2ccccc2)cn2c1c(-c1ccc(CN3CCC(c4nnc(-c5ccccn5)[nH]4)CC3)cc1)nc1ccccc12`, the IC50 in test [1] is 14 µM; in test [2] it was 7 µM; in test [3], 12 µM; in test [4] it was 5 µM; in test [5], > 50 µM; in [6], 16 µM.
As for `CCOC(=O)c1cn2c(c(-c3ccc(CN4CCC(c5nnc(-c6ccccn6)[nH]5)CC4)cc3)nc3ccccc32)c1-c1ccccc1`, the IC50 in test [1] was determined as 7 µM; in test [2], 7 µM; in test [3], 5 µM; in test [4], 2 µM; in [5] it was 5 µM; in test [6], 8 µM.
On to `CCOC(=O)c1cc(-c2ccccc2)n2c1c(-c1ccc(CN3CCC(c4nc5ccc(F)cc5[nH]4)CC3)cc1)nc1ccccc12`, for which the 50% inhibitory concentration (IC50) in [1] came to 7 µM; in test [2] it was 4 µM; in [3], 8 µM; in test [4], 6 µM; in test [5], 4 µM; in [6] it was 50 µM. The “Ratio IC50” value in [9] and in test [10] was 12.5 each time.
Turning to `O=c1[nH]c2ccccc2n1C1CCN(Cc2ccc(-c3nc4ccccc4n4ccc(-c5ccccc5)c34)cc2)CC1`, half-maximal inhibition in test [3] (IC50) required 2 µM.
For `CCOC(=O)c1cc(-c2ccccc2)n2c1c(-c1ccc(CN3CCC(c4nnc(-c5ccccn5)[nH]4)CC3)cc1)nc1ccccc12`, the concentration for half-maximal inhibition (IC50) is 12 µM in [1]; 11 µM in test [2]; 24 µM in [3]; 5 µM in test [4]; 8 µM in test [5]; 50 µM in test [6].
For the compound `CCOC(=O)c1cc2c(-c3ccc(CN4CCC(c5nc6ccc(F)cc6[nH]5)CC4)cc3)nc3ccccc3n2c1-c1ccccc1`, the IC50 in test [1] was determined as 3 µM; in [2], 3 µM; in test [3], 3 µM; in [4], 3.5 µM; in test [5], 3 µM; in test [6] it was 13 µM.
On to `CCOC(=O)c1cn2c(c(-c3ccc(CN4CCC(c5nc6ccc(F)cc6[nH]5)CC4)cc3)nc3ccccc32)c1-c1ccccc1`, for which the 50% inhibitory concentration (IC50) was 3 µM in test [1]; 10 µM in test [3]; 5 µM in [4]; 18 µM in [5]; > 50 µM in test [6]. Moreover, the “Ratio IC50” value in test [8] is reported as >16.7. In test [11], this compound displayed an Activity of 92%.
In the case of `O=c1[nH]c2ccccc2n1C1CCN(Cc2ccc(-c3nc4ccccc4n4cccc34)cc2)CC1`, the IC50 in [1] is 4.5 µM.
For the compound `O=c1cc(N2CCOCC2)oc2c(-c3ccccc3)cccc12` [LY-294002], the 50% inhibitory concentration (IC50) in [1] was 38 µM; in test [2] it was 14 µM; in [3], 14 µM; in test [4], 22 µM; in test [5], 46 µM; in test [6] it was > 50 µM.
As for `O=c1[nH]c2ccccc2n1C1CCN(Cc2ccc(-c3nc4ccccc4n4cc5ccccc5c34)cc2)CC1`, the IC50 in test [1], in test [3] and in test [4] was 5 µM each time.

These data come from ChEMBL document CHEMBL3779812, “Synthesis and evaluation of the cytotoxic activity of novel ethyl 4-[4-(4-substitutedpiperidin-1-yl)]benzyl-phenylpyrrolo[1,2-a]quinoxaline-carboxylate derivatives in myeloid and lymphoid leukemia cell lines” (Eur J Med Chem, 2016).
